Source: patent US20250082656A1, “DOSAGE REGIMENS FOR TREATMENT OF DENGUE INFECTION” (Atea Pharmaceuticals, Inc., priority 2022, published 2025)

Experiments:
[1] = Cytotoxicity in MDCK cells; assay type: cell-based; settings: dog, Table 2, MDCK
Method: To assess the antiviral specificity of Compound 1 (AT-281), serial dilutions were incubated with various host cell lines infected with a panel of DNA and RNA viruses other than flaviviruses. The activity of Compound 1 (AT-281) was measured in infected cells using the neutral red assay to determine the effective concentration required to inhibit viral replication 50% (EC50) (described in Example 3) and the threshold concentration required to obtain a perceptible effect on 50% of the cells incubated without virus (CC50). Compound 1 (AT-281) had no activity against the DNA viruses tested and was only weakly or not active against several RNA viruses (Table 2).

Influenza A and B = test: Antiviral specificity panel, Influenza A and B; assay type: cell-based; settings: Influenza A virus; RNA virus, MDCK
Dengue-3 (DENV-3) = test: Neutral red assay of virus-induced CPE, DENV-3; assay type: cell-based; settings: DENV3, Huh-7
[2] = In vivo formation of AT-9010 in PBMCs, rats; set-up: species or system SD rats; settings: single oral dose 300 mg/kg, 24 h
Method: Monkeys were given an oral dose of Compound 2 (AT-752) equivalent to Compound 1 (AT-281) at 55 mg/kg and blood collected at 12, 24 and 48 h. […] Mouse PBMCs were pooled from 3 animals per time point; Rat and monkey data expressed as mean+/−SD (n=2-3 per time point). […] The experimental procedure is provided in Example 15.
Male naïve SD rats (Beijing Vital River Laboratory Animals Co. Ltd., China) were administered a dose of AT-752 at 300 mg/kg in 40% PEG400, 10% solutol HS15, 50% 100 mM citrate buffer, pH 4.5 (v/v) by oral gavage. Blood samples (n=4) were collected at 1, 2, 4, 8, 12 and 24 h post-dose, plasma separated and stored at −70° C. […] For PBMCs, nine male naïve SD rats were administered a dose of Compound 2 (AT-752) (at a Compound 1 (AT-281) equivalent dose of 300 mg/kg) by oral gavage.
Pharmacokinetic measurements for FIGS. 11, 12, 13, 14, and 15 were analyzed using LC-MS/MS according to the protocol described herein. Plasma samples were prepared for MS analysis by adding internal standards and extracting with 20 volumes chilled ACN. After vortex (800 rpm for 10 min) and centrifugation (4,000 rpm, 15 min, 4° C.), the supernatants (25 μL) were diluted with an equal volume of H2O, mixed and spun again. […]

DENV3 NS5 = DENV3 NS5 (Dengue virus type 3, UniProt Q6YMS4); test: Thermal shift assay, DENV3 NS5; settings: read-out: ΔTM
Chain of DENV3 NS5 (Q6YMS4 2491-3390): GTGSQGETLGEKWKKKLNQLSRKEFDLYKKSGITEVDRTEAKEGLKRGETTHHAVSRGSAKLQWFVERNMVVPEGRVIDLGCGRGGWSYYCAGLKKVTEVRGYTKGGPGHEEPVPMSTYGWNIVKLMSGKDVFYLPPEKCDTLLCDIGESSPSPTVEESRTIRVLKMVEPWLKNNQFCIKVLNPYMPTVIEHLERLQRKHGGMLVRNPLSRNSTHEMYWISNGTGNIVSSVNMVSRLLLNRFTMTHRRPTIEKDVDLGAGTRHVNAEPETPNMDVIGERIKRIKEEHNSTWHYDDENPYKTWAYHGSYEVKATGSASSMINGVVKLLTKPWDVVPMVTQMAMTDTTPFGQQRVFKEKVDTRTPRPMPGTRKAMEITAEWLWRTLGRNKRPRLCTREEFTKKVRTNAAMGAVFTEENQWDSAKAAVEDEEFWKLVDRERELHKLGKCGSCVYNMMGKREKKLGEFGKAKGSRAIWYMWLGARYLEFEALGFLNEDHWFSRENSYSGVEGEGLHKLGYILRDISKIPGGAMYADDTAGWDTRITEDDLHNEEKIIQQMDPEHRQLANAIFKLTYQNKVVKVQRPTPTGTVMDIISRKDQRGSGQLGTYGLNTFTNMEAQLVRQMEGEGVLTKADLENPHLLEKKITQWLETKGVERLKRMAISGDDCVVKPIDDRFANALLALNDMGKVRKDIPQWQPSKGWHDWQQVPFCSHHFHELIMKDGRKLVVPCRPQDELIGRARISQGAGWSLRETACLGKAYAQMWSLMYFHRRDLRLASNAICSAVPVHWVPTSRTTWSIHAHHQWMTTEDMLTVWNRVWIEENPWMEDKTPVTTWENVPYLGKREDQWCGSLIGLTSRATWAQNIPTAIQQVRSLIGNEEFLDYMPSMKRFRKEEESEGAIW

DENV4 MTase domain = DENV4 MTase domain (Dengue virus type 4, UniProt P09866); test: Thermal shift assay, DENV4 MTase domain; settings: read-out: ΔTM
Chain of DENV4 MTase domain (P09866 2489-2751): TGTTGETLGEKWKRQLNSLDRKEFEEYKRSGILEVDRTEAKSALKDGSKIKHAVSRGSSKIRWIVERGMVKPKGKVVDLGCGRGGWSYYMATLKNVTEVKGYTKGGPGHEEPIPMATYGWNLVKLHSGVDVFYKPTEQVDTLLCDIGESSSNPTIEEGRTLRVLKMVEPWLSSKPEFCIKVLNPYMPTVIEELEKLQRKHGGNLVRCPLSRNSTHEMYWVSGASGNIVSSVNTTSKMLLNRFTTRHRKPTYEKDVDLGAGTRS

DENV2 NS5MTase protein = DENV2 NS5MTase protein (Dengue virus type 2, UniProt P14340); test: MTase activity filter-binding assay (FBA); assay type: biochemical; settings: 30° C., 30 min, read-out: IC50 against the MTase domain
Chain of DENV2 NS5MTase protein (P14340 2492-2787 limits assumed): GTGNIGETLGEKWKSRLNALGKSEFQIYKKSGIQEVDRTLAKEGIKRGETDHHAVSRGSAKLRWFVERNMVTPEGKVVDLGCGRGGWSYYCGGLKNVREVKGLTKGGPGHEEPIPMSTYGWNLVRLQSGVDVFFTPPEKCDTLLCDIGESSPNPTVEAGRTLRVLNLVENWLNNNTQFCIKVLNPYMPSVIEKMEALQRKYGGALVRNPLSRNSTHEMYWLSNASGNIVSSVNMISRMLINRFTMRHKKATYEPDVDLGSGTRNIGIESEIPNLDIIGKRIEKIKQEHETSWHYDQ
Method: A) Dose-response determination using a filter binding assay (FBA). Reactions were incubated at 30° C. during 30 min and the enzymatic activity was determined using FBA as described in Example 33. […] Interacting residues are labelled and shown as sticks. E) Structural comparison of the position of a GTP (pink) and AT9010 (light brown) bound in the Cap binding site. Cap binding site structures belong to DENV2 (in pink—PDB 2P1D)) and DENV3 (in light brown) MTases and are conserved.
The transfer of tritiated methyl from [3H]-SAM onto RNA substrate was monitored by filter-binding assay (FBA), performed according to the method described previously (Paesen et al., 2015). […] FBA was carried out in reaction mixture [40 mM Tris-HCl (pH 8.0), 1 mM DTT, 2 μM SAM and 0.1 μM 3H-SAM (Perkin Elmer)] in the presence of 0.7 μM mGpppAC4 synthetic RNA and DENV2 NS5MTase protein (500 nM). The enzyme was first mixed with the compound (0.5 to 1000 μM) suspended in water before the addition of RNA substrate and SAM and then incubated at 30° C. Reaction mixtures were stopped after 30 min by their 10-fold dilution in ice-cold water. […] They were soaked with scintillation fluid (Perkin Elmer), and 3H-methyl transfer to the RNA substrates was determined using a Wallac MicroBeta TriLux Liquid Scintillation Counter (Perkin Elmer). […]

DENV1 NS5 = DENV1 NS5 (Dengue virus type 1, UniProt P17763); test: Thermal shift assay, DENV1 NS5; settings: read-out: ΔTM
Chain of DENV1 NS5 (P17763 2494-3392): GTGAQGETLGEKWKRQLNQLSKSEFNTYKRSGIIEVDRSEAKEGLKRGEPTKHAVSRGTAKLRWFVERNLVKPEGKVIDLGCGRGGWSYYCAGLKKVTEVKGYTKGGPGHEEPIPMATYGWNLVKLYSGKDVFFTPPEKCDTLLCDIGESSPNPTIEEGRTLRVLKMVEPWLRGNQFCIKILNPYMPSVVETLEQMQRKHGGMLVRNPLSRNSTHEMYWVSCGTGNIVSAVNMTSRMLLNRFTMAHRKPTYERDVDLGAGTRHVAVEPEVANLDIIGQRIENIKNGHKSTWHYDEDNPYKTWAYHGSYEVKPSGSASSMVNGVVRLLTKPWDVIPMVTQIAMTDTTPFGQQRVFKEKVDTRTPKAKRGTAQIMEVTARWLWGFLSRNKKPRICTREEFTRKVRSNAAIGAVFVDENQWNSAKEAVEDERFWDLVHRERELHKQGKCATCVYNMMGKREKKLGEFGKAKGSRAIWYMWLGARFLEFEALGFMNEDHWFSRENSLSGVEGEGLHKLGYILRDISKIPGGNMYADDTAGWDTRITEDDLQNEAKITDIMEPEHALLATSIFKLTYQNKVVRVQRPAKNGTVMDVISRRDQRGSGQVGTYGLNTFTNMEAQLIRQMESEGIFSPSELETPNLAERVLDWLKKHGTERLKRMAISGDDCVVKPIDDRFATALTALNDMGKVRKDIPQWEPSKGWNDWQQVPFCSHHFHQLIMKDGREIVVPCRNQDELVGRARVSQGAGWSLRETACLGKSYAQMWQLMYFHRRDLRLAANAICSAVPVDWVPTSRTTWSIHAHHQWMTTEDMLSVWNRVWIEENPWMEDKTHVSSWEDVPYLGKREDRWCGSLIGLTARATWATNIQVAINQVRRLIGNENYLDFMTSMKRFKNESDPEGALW

CNc1nc(N)nc2c1ncn2[C@@H]1O[C@H](CO[P@](=O)(N[C@@H](C)C(=O)OC(C)C)Oc2ccccc2)[C@@H](O)[C@@]1(C)F [Compound 1, isopropyl ((R)-(((2R,3R,4R,5R)-5-(2-amino-6-(methylamino)-9H-purin-9-yl)-4-fluoro-3-hydroxy-4-methyltetrahydrofuran-2-yl)methoxy)(phenoxy)phosphoryl)-L-alaninate]
SI (flaviviruses; DENV-2 NGC Huh-7, DENV2 clinical isolate PBMC and BHK-21, DENV-3 H87 Huh-7, in each case): > 210
CC50 (flaviviruses; read-out: CC50 (concentration required to kill 50% of cells exposed to drug only), exceeded the highest concentration tested): 85 to 170 µM
CC50 [1]: > 100 µM
EC50 (Influenza A and B): > 100 µM
EC50 (Dengue-3 (DENV-3)): 0.77 µM

C[C@@]1(F)[C@H](O)[C@@H](COP(=O)(O)OP(=O)(O)OP(=O)(O)O)O[C@H]1n1cnc2c(=O)[nH]c(N)nc21 [Compound 5]
concentration of AT-9010 in PBMCs [2]: 0.439±0.218 pmol/10^6 cells
ΔTm at 100 µM (DENV3 NS5): 5 ± 0.1 °C
ΔTm at 100 µM (DENV4 MTase domain): 2.9 ± 0.1 °C
IC50 (DENV2 NS5MTase protein): 29.6 µM
ΔTm at 100 µM (DENV1 NS5): 6.1 ± 0.1 °C
